Legend:
Format in all cases: cell-based, human
[1] = system: urinary bladder cell line (UM-UC-3); assay: XTT-assay proliferation rate, urinary bladder cell line; settings: UM-UC-3 (Table 3), no IVM
Protocol: (§1) Commercially available human tumor cell lines were purchased from ATCC (ATCC/LGC-standards, Borás, Sweden). […] Briefly, ampoules of frozen cells were thawed by submerging into a 37° C. water bath for 45 s. […] With supernatant discarded, cell pellets were further resuspended with 5 ml complete medium into 25 cm^2 cell culture flasks (Cell+, Sarstedt, Nümbrecht, Germany). Tumor cells were cultured until sub-confluence and further sub-cultured with Trypsin (0.5%), EDTA (0.2%) solution (T4174, TE-10x, Sigma) in sterile sodium chloride. Culture media was changed two-three times a week. Culture flasks (Cell+, Sarstedt, Nümbrecht, Germany) and culture plates (Falcon/BD, Franklin Lakes, N.J., USA) were used for experimental set-ups. Cells were regularly monitored using an inverted microscope connected to a digital photo equipment (Axiovert 25 and Axiovision, Zeiss, Carl Zeiss AG, Germany) (FIG. 1). Described culture techniques and equipment have been used extensively in the laboratory
(§2) The proliferation rates of the different human tumor cell lines were studied using a method based on the conversion of a sodium salt (XTT-assay, Sigma) into a stable orange color that could be analyzed in a spectrophotometer. […] The color change was measured using a 96-well plate reader with software to calculate the absorbance at 450 nm (V-max/Softmax Pro, Molecular Devices, USA).
(§3) Increasing concentrations of substance ivermectin was added with an 8-channel pipette (Titertek, Kem-En-Tec, Taastrup, Denmark) together with sterile pipette tips (Molecular Bioproducts, San Diego, Calif., USA). Cell cultures including active substances were incubated for 24 hours (and 96 hours). Untreated wells including culture medium only served as untreated controls. The XTT-assay substrate was added and after gentle agitation using a micro plate shaker, absorbencies at 450 and 650 nm were measured. Levels from medium were subtracted and compared with control wells, using culture medium only.

[2] = system: colorectal cell line (Colo205); assay: XTT-assay proliferation rate, colorectal cell line Colo205; settings: Colo205 (Table 4), no IVM
Source text: Commercially available human tumor cell lines were purchased from […], Borás, Sweden). Cell lines from urinary bladder (UM-UC-3, #CRL-1749), colorectal carcinoma (Colo205, #CCL-222 and HT29, #HTB-38), prostate carcinoma (LNCaP, #CRL-1740) and breast carcinoma (ZR-75-1, #CRL-1500) were purchased and stored in liquid nitrogen. […] Tumor cell lines were handled aseptically using a laminar airflow (LAF) bench (Holten 2448, Ninolab, Sweden) and stored in a liquid nitrogen tank and were initiated in culture as previously described (Falk P. Experimental models of the peritoneal environment: Effects of TGF-beta and Hyaluronan. Göteborg: University of Gothenburg; 2008). Briefly, ampoules of frozen cells were thawed by submerging into a 37° C. water bath for 45 s. […] Culture media was changed two-three times a week. Culture flasks (Cell+, Sarstedt, Nümbrecht, Germany) and culture plates (Falcon/BD, Franklin Lakes, N.J., USA) were used for experimental set-ups. […] Described culture techniques and equipment have been used extensively in the laboratory The proliferation rates of the different human tumor cell lines were studied using a method based on the conversion of a sodium salt (XTT-assay, Sigma) into a stable orange color that could be analyzed in a spectrophotometer. The color change is proportional to the mitochondrial dehydrogenase activity resulting in an effective technique for measuring cell toxicity (Roehm N W, Rodgers […], Glasebrook A L. An improved colorimetric assay for cell proliferation and viability utilizing the tetrazolium salt XTT. […] The color change was measured using a 96-well plate reader with software to calculate the absorbance at 450 nm (V-max/Softmax Pro, Molecular Devices, USA). […] RPMI 1640 and EMEM without phenol red was used during the experiments to reduce the red color background signal in the XTT-assay. […] Untreated wells including culture medium only served as untreated controls. The XTT-assay substrate was added and after gentle agitation using a micro plate shaker, absorbencies at 450 and 650 nm were measured. Levels from medium were subtracted and compared with control wells, using culture medium only.

[3] = system: breast cell line (ZR-75-1); assay: XTT-assay proliferation rate, breast cell line; settings: ZR-75-1 (Table 6), no IVM
Protocol: as §1, §2, §3

[4] = system: colorectal cells (Colo205); assay: Morphology of cultured tumor cells, Colo205; settings: ivermectin 10 μM alone, albendazole 20 and 40 μM alone (FIG. 11)
Protocol: as §1
(§4) The effect of Ivermectin, selamectin, abamectin alone, or in combination with ketoconazole, albendazole, ibuprofen, diclofenac and celecoxib on the morphology of cultured human tumor cells was studied. The effect of ivermectin in the presence of increasing concentration of ivermectin was also investigated. Cells were grown into sub-confluence and then sub-cultured into 12 and 24 well plates (Sarstedt, Falcon/BD) for morphology studies, or in 96 well plates (Sarstedt, Falcon/BD) for proliferation studies.

[5] = system: prostatic cell line (LNCaP); assay: XTT-assay proliferation rate, prostatic cell line; settings: LNCaP (Table 5); single agent 10 μmol/L, no IVM
Protocol: as §1, §2, §3

prostate cells (LNCaP) = assay: Morphology of cultured tumor cells, LNCaP
Protocol: as §1, §4

[6] = system: prostatic cell line (LNCaP); assay: XTT-assay proliferation rate, prostatic cell line; settings: for Proliferation rate compared to untreated control: LNCaP (Table 5), no IVM

| Structure (SMILES) | Proliferation rate compared to untreated medium control ([1]; single agent 10 μmol/L) | Proliferation rate compared to untreated medium control ([1]; single agent 20 μmol/L) | Proliferation rate compared to untreated medium control ([1]; single agent 40 μmol/L) | Proliferation rate compared to medium control ([2]; single agent 10 μmol/L) | Proliferation rate compared to medium control ([2]; single agent 20 μmol/L) | Proliferation rate compared to medium control ([2]; single agent 40 μmol/L) | Proliferation rate compared to untreated control ([3]; single agent 10 μmol/L) | Proliferation rate compared to untreated control ([3]; single agent 20 μmol/L) | Proliferation rate compared to untreated control ([3]; single agent 40 μmol/L) | Decreased growth of cells, substances tested alone [4] | Proliferation rate compared to untreated control [5] | Effect on morphology (prostate cells (LNCaP); ketoconazole 10 μM) | Effect on morphology (prostate cells (LNCaP); ketoconazole 20 and 40 μM) | Proliferation rate compared to untreated control ([6]; single agent 10 μmol/L, listed as Ket) | Proliferation rate compared to untreated control ([6]; single agent 20 μmol/L) | Proliferation rate compared to untreated control ([6]; single agent 40 μmol/L) | Effect on proliferation rate ([6]; LNCaP, ketoconazole alone at 20 and 40 μM) |
| --- | --- | --- | --- | --- | --- | --- | --- | --- | --- | --- | --- | --- | --- | --- | --- | --- | --- |
| CC(C)Cc1ccc(C(C)C(=O)O)cc1 (racemic) [ibuprofen, (RS)-2-(4-(2-methylpropyl)phenyl)propanoic acid] | 103 ± 2% | 106 ± 2% | 99 ± 3% | 90.1 ± 8.8% | 92.2 ± 8.2% | 90.8 ± 6.3% | 115.2 ± 3.8% | 116.2 ± 1.9% | 108.7 ± 6.7% |  |  |  |  |  |  |  |  |
| CCCSc1ccc2nc(NC(=O)OC)[nH]c2c1 [albendazole, Methyl[6-(propylthio)-1H-benzoimidazol-2-yl]carbamate] |  |  |  |  |  |  |  |  |  | not seen |  |  |  |  |  |  |  |
| Cc1ccc(-c2cc(C(F)(F)F)nn2-c2ccc(S(N)(=O)=O)cc2)cc1 [celecoxib, 4-[5-(4-methylphenyl)-3-(trifluoromethyl)pyrazol-1-yl]benzenesulfonamide] | 103 ± 9% | 100 ± 6% | 106 ± 1% | 98.7 ± 15.8% | 94.8 ± 2.5% | 94.5 ± 6.6% | 116.5 ± 4.4% | 110.6 ± 13.3% | 95.2 ± 4.9% |  |  |  |  |  |  |  |  |
| CC(=O)N1CCN(c2ccc(OC[C@H]3CO[C@](Cn4ccnc4)(c4ccc(Cl)cc4Cl)O3)cc2)CC1 [ketoconazole, 1-[4-(4-{[(2R,4S)-2-(2,4-Dichlorophenyl)-2-(1H-imidazol-1-ylmethyl)-1,3-dioxolan-4-yl]methoxy}phenyl)piperazin-1-yl]ethan-1-one] | 95 ± 6% | 99 ± 6% | 103 ± 2% | 94.8 ± 6.3% | 93.4 ± 8.1% | 72.1 ± 15.5% |  |  |  |  | 104.6±3.0% | not microscopically affected | did affect morphology | 104.6 ± 3.0% | 76.3 ± 2.3% | 68.0 ± 1.8% | decreased the proliferation rate |
